The source of these data is patent publication US20250041335A1, “PERCARBONATE COMPOSITIONS AND USES THEREOF” (ThermoLife International, LLC, priority 2023, published 2025).

One data set concerns human subject. To be noted: person, 2 grams oral, two 000 capsules, just before kayaking.
For data set [1] the following is noted: label language of products on the market; cited from earlier work.
The mark [2] stands for this setting: 2 grams oral, two 000 capsules, immediately before exercise, all subjects, self-described.
[3] abbreviates: subject with diabetes, 2 grams oral, self-described.
Setting [4] is: ingested before exercise, humans.

Turning to `O=C([O-])[O-].O=C([O-])[O-].OO.OO.OO.[Na+].[Na+].[Na+].[Na+]` [sodium percarbonate], in the data set with human subjects (setting [2]), the endurance result is listed as “increased”; the lactic acid burn result is “reduced”; the “recovery during and after the session of exercise” value is reported as “improved”; the strength result was “increased”. Further, in the data set on human subjects (person, 2 grams oral before StairMaster cardio session after leg training, self-described), the leg ache result is reported as “didn't ache as much as usual”. In the data set on human subjects (person, 2 grams oral before StairMaster cardio session after leg training, without breaking fast), the endurance levels result is “definitely better than normal”. Also, in the data set with human subjects (setting [3]), the breathing result was “feels good”; the recovery between sets result is “quicker”; the “stamina/endurance through back workout and cardio” value is listed as “still feel like I could keep going”. Moreover, in the data set on humans (doses of 2-10 grams in humans, preferably capsule form), the “detrimental gastrointestinal effects (nausea, diarrhea)” value was “did not result in nausea, diarrhea or any other detrimental gastrointestinal effects”. Also, in the data set with humans (setting [4]), the endurance entry is on record as “increased”; the “lactic acid "burn"” value was “decreased”; the recovery from exercise entry is on record as “improved”; the “stimulatory effects like those of caffeine and other stimulants” value is reported as “did not have any appreciable stimulatory effects”. Besides, the strength result with humans (setting [4]) is on record as “increased”. Besides, in the data set on human subject, the burning in muscles entry is given as “did not feel any burning in their muscles” and the endurance entry is given as “greatly increased”. Moreover, the “effects of ingestion per product poisoning warning” value in data set [1] is “may cause bloating, belching, irritation of the mouth and throat, nausea, vomiting, abdominal pain and diarrhea”.
